In ChEMBL document CHEMBL1158091, “Amphimedosides, 3-alkylpyridine glycosides from a marine sponge Amphimedon sp” (J Nat Prod, 2006) one finds IC50 data, which are given here for five molecules.

In this assay the test system is P388. The experiment in a line: Cytotoxicity against mouse P388 cells by MTT assay. In kind it is functional, cell-based.

The structures appear in SMILES notation. Converted amounts (≈) assume the structure as drawn.

For the molecule `CON(CCCCCCCCCCC#CCCCCc1cccnc1)[C@@H]1O[C@H](CO)[C@@H](O)[C@H](O)[C@H]1O` [AMPHIMEDOSIDE A], 11 µg/mL (≈ 21.7 µM) corresponded to half-maximal inhibition (IC50).
Next, `CON(CCCCCCCCC#CCCCCc1cccnc1)[C@@H]1O[C@H](CO)[C@@H](O)[C@H](O)[C@H]1O` [AMPHIMEDOSIDE B]: 11 µg/mL (≈ 23 µM).
As for `CON(CCCCCCCCCCC#CCCc1cccnc1)[C@@H]1O[C@H](CO)[C@@H](O)[C@H](O)[C@H]1O` [AMPHIMEDOSIDE C], half-maximal inhibition (IC50) required 5 µg/mL (≈ 10.4 µM).
Next, `CON(CC(C)CCCCCCCCCCc1cccnc1)[C@@H]1O[C@H](CO)[C@@H](O)[C@H](O)[C@H]1O` (stereo not given in full) [AMPHIMEDOSIDE D]: 0.45 µg/mL (≈ 0.96 µM); `CON(CCCC/C=C\CCCCCCCCc1cccnc1)[C@@H]1O[C@H](CO)[C@@H](O)[C@H](O)[C@H]1O` [AMPHIMEDOSIDE E]: 2.2 µg/mL (≈ 4.58 µM).
